Data published in PubChem BioAssay (NCI).
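48-hour exposure; five concentrations; linearly interpolated endpoints. Abbreviation: GI50, concentration required for 50% inhibition of growth. Definition used: TGI = concentration required for complete inhibition of growth.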

What was measured:
Assay in all cases: DTP human tumour cell line panel, 48 h
RXF 393 renal = test system: RXF 393 renal
BT-549 breast = test system: BT-549 breast
MCF7 breast = test system: MCF7 breast
HCT-15 colon = test system: HCT-15 colon
UACC-257 melanoma = test system: UACC-257 melanoma
SK-OV-3 ovarian = test system: SK-OV-3 ovarian
ACHN renal = test system: ACHN renal
MDA-MB-231 breast = test system: MDA-MB-231 breast
DU-145 prostate = test system: DU-145 prostate
SR leukemia = test system: SR leukemia

## CCOc1ccc2nc(NC(=O)C(=O)C(c3cnc4ccccc4n3)[N+](=O)[O-])sc2c1 (stereo not drawn)
RXF 393 renal
  TGI: > 100 µM
BT-549 breast
  TGI: > 100 µM
MCF7 breast
  TGI: > 100 µM
HCT-15 colon
  TGI: > 100 µM
UACC-257 melanoma
  TGI: > 100 µM
SK-OV-3 ovarian
  TGI: > 100 µM
ACHN renal
  TGI: > 100 µM
MDA-MB-231 breast
  TGI: > 100 µM

## Cc1cccc(NC(=O)c2cccc([N+](=O)[O-])c2O)c1C
RXF 393 renal
  TGI: 53.6 µM
BT-549 breast
  TGI: > 100 µM
MCF7 breast
  TGI: 81.2 µM
HCT-15 colon
  TGI: > 100 µM
UACC-257 melanoma
  TGI: > 79.3 µM
DU-145 prostate
  TGI: > 100 µM
SK-OV-3 ovarian
  TGI: > 81.9 µM
ACHN renal
  TGI: > 100 µM
SR leukemia
  TGI: > 100 µM
MDA-MB-231 breast
  TGI: > 100 µM

## Cc1cc(N2CCOCC2)cc2[nH]c(-c3c(NC[C@@H](O)c4cccc(Cl)c4)cc[nH]c3=O)nc12
RXF 393 renal
  GI50: 567 nM
  TGI: 2.11 µM
BT-549 breast
  GI50: 1.83 µM
  TGI: 7.18 µM
MCF7 breast
  GI50: 0.233 µM
  TGI: 15.8 µM
HCT-15 colon
  GI50: 2.08 µM
  TGI: 31.5 µM
UACC-257 melanoma
  GI50: 0.385 µM
  TGI: 7.37 µM
DU-145 prostate
  GI50: 1.42 µM
  TGI: 14.7 µM
SK-OV-3 ovarian
  GI50: 4.56 µM
  TGI: 25 µM
ACHN renal
  GI50: 2.84 µM
  TGI: 80.2 µM
SR leukemia
  GI50: 0.295 µM
  TGI: 5.06 µM
MDA-MB-231 breast
  GI50: 1.22 µM
  TGI: 5.37 µM

## COc1ccccc1NC(=O)CC(=O)N/N=C/c1ccc(N(CCC#N)S(=O)(=O)c2ccccc2)cc1
HCT-15 colon
  TGI: > 100 µM
UACC-257 melanoma
  TGI: > 100 µM
ACHN renal
  TGI: > 100 µM
SR leukemia
  TGI: > 100 µM

## O=C(NC12CC3CC(CC(C3)C1)C2)C(=O)c1c[nH]c2ccccc12
HCT-15 colon
  TGI: 24.4 µM
UACC-257 melanoma
  TGI: 25.9 µM
SK-OV-3 ovarian
  TGI: 29.5 µM
ACHN renal
  TGI: 28.8 µM
SR leukemia
  TGI: 48.7 µM

## COc1cccc(NC(=O)/C(Cc2nc3ccccc3nc2C)=N/NC(=O)C[n+]2ccccc2)c1
HCT-15 colon
  TGI: > 100 µM
UACC-257 melanoma
  TGI: > 100 µM
SK-OV-3 ovarian
  TGI: > 100 µM
ACHN renal
  TGI: > 100 µM
SR leukemia
  TGI: > 100 µM

## COc1ccc(OCC(=O)O)c(C(=O)CCC(=O)O)c1
RXF 393 renal
  TGI: > 100 µM
HCT-15 colon
  TGI: > 100 µM
UACC-257 melanoma
  TGI: > 100 µM
SK-OV-3 ovarian
  TGI: > 100 µM
ACHN renal
  TGI: > 100 µM
SR leukemia
  TGI: > 100 µM

## Cc1cnc(C(=O)NNc2nc3sc4c(c3c(=O)n2C)C(C)CCC4)cn1 (stereo not drawn)
RXF 393 renal
  GI50: 926 nM
  TGI: 3.6 µM
BT-549 breast
  GI50: 1.03 µM
  TGI: 14 µM
MCF7 breast
  GI50: 0.29 µM
  TGI: 1.7 µM
HCT-15 colon
  GI50: 0.268 µM
  TGI: 11.8 µM
UACC-257 melanoma
  GI50: 0.353 µM
  TGI: 4.34 µM
DU-145 prostate
  GI50: 0.458 µM
  TGI: 4.15 µM
SK-OV-3 ovarian
  GI50: 0.628 µM
  TGI: 5.01 µM
ACHN renal
  GI50: 0.308 µM
  TGI: 2.02 µM
SR leukemia
  GI50: 0.237 µM
  TGI: > 100 µM
MDA-MB-231 breast
  GI50: 0.335 µM
  TGI: 4.04 µM

## COC(C)(C)C/C=C/C(C)=C/C=C/C(C)=C\C=C\C(C)=C\C=C\C=C(C)\C=C\C=C(C)\C=C\C=C(C)\C=C\CC(C)(C)OC
RXF 393 renal
  GI50: > 150 µg/mL
  TGI: > 150 µg/mL
HCT-15 colon
  GI50: > 150 µg/mL
  TGI: > 150 µg/mL
UACC-257 melanoma
  GI50: > 150 µg/mL
  TGI: > 150 µg/mL
ACHN renal
  GI50: > 150 µg/mL
  TGI: > 150 µg/mL

## O=c1c2cc(Cl)ccc2sc2cccc(Cl)c12
RXF 393 renal
  TGI: > 100 µM
HCT-15 colon
  TGI: > 100 µM
UACC-257 melanoma
  TGI: > 100 µM
ACHN renal
  TGI: > 100 µM
SR leukemia
  TGI: > 100 µM

## CN(C)CCCNC(=O)c1cc(NC(=O)c2cc(NC(=O)CCNS(=O)(=O)c3ccc4c(c3)C(=O)c3ccccc3C4=O)cn2C)cn1C
RXF 393 renal
  GI50: > 100000 nM
  TGI: > 100 µM
BT-549 breast
  GI50: > 100 µM
  TGI: > 100 µM
MCF7 breast
  GI50: > 100 µM
  TGI: > 100 µM
UACC-257 melanoma
  GI50: > 100 µM
  TGI: > 100 µM
SK-OV-3 ovarian
  GI50: > 100 µM
  TGI: > 100 µM
SR leukemia
  GI50: 85.9 µM
  TGI: > 100 µM
MDA-MB-231 breast
  GI50: > 100 µM
  TGI: > 100 µM

## CCN(CC)c1ccc(N=Nc2ccc(-c3nc4ccc[n+](C)c4o3)cc2)cc1
RXF 393 renal
  TGI: 22.6 µM
HCT-15 colon
  TGI: 22.3 µM
UACC-257 melanoma
  TGI: 20.2 µM
SK-OV-3 ovarian
  TGI: 34.1 µM
SR leukemia
  TGI: 20.9 µM

## CSc1nc(SC)c2c(CO)c(Br)n(Cc3ccccc3)c2n1
RXF 393 renal
  TGI: 60.3 µM
BT-549 breast
  TGI: 62.4 µM
MCF7 breast
  TGI: > 100 µM
HCT-15 colon
  TGI: > 100 µM
DU-145 prostate
  TGI: 77.8 µM
SK-OV-3 ovarian
  TGI: 37.6 µM
ACHN renal
  TGI: 44.7 µM
SR leukemia
  TGI: > 100 µM
MDA-MB-231 breast
  TGI: 36.5 µM

## N#CC1CCCCCCCCCCC(=O)N(CCCl)C1=O (stereo not drawn)
RXF 393 renal
  TGI: > 100 µM
UACC-257 melanoma
  TGI: > 100 µM
SK-OV-3 ovarian
  TGI: > 100 µM
ACHN renal
  TGI: > 100 µM

## O=c1c(-c2ccccc2)coc2cc(OC/C(=N/O)c3ccccc3)ccc12
BT-549 breast
  GI50: 29.8 µM
  TGI: > 100 µM
MCF7 breast
  GI50: 23.3 µM
  TGI: 47.1 µM
HCT-15 colon
  GI50: 16.2 µM
  TGI: 39.6 µM
UACC-257 melanoma
  GI50: 3.03 µM
  TGI: 9.03 µM
DU-145 prostate
  GI50: 29 µM
  TGI: 94.1 µM
SK-OV-3 ovarian
  GI50: 25.9 µM
  TGI: 88.5 µM
ACHN renal
  GI50: 21.8 µM
  TGI: 43.5 µM
MDA-MB-231 breast
  GI50: 18.2 µM
  TGI: 43.7 µM

## Cc1ccc(Cl)cc1NC(=O)c1sc2nc3c(cc2c1N)C(=O)CCC3
RXF 393 renal
  GI50: 2480 nM
  TGI: 6.96 µM
MCF7 breast
  GI50: 4.67 µM
  TGI: > 100 µM
HCT-15 colon
  GI50: 4.79 µM
  TGI: > 100 µM
UACC-257 melanoma
  GI50: 7.3 µM
  TGI: > 100 µM
DU-145 prostate
  GI50: 4.4 µM
  TGI: > 100 µM
SK-OV-3 ovarian
  GI50: 5.26 µM
  TGI: > 100 µM
ACHN renal
  GI50: 50.4 µM
  TGI: > 100 µM

## OCC#Cc1ccccc1C#CCCCCCC#Cc1ccccc1C#CCO
BT-549 breast
  GI50: 19.8 µM
  TGI: 39.8 µM
MCF7 breast
  GI50: 18.5 µM
  TGI: 40.2 µM
HCT-15 colon
  GI50: 15.9 µM
  TGI: 30.7 µM
UACC-257 melanoma
  GI50: 15.7 µM
  TGI: 31.4 µM
DU-145 prostate
  GI50: 20.2 µM
  TGI: 41.7 µM
SK-OV-3 ovarian
  GI50: 31 µM
  TGI: > 100 µM
ACHN renal
  GI50: 27.1 µM
  TGI: 54 µM
SR leukemia
  GI50: 18.1 µM
  TGI: 40.7 µM
MDA-MB-231 breast
  GI50: 17.2 µM
  TGI: 32.6 µM

## Cc1cc(C)cc(NC(N)=S)c1
RXF 393 renal
  TGI: 98.1 µM
HCT-15 colon
  TGI: 38.4 µM
UACC-257 melanoma
  TGI: > 100 µM
ACHN renal
  TGI: > 100 µM
SR leukemia
  TGI: > 100 µM

## CC(=O)C1=C(O)CC2CC3c4[nH]c5ccccc5c4CCN3CC2C1 (stereo not drawn)
RXF 393 renal
  TGI: 82.3 µM
HCT-15 colon
  TGI: > 100 µM
UACC-257 melanoma
  TGI: > 100 µM
SK-OV-3 ovarian
  TGI: > 100 µM
ACHN renal
  TGI: > 100 µM
SR leukemia
  TGI: 58.5 µM

## COC(=O)Nc1nc2ccc(Br)cc2[nH]1
RXF 393 renal
  TGI: 67.2 µM
HCT-15 colon
  TGI: > 100 µM
UACC-257 melanoma
  TGI: > 100 µM
SK-OV-3 ovarian
  TGI: 67.9 µM
ACHN renal
  TGI: > 100 µM
SR leukemia
  TGI: > 100 µM
